Source: patent publication US20230113398A1, “INEXPENSIVE METAL-FREE ORGANIC REDOX FLOW BATTERY (ORBAT) FOR GRID-SCALE STORAGE” (UNIVERSITY OF SOUTHERN CALIFORNIA, priority 2013, published 2023)
In brackets after ≈: the same amount, converted by molar mass.

What was measured:
[1] = Rotating disk electrode and cyclic voltammetry on glassy carbon, 1 mM compound in 1 M sulfuric acid; type: physicochemical
Experimental: Measurement of kinetic parameters and diffusion coefficients was conducted in a three-electrode cell consisting of a rotating glassy carbon disk working electrode, a platinum wire counter electrode, and a mercury/mercuric sulfate reference electrode (E° = +0.65 V). […] The solutions were de-aerated and kept under a blanket of argon gas throughout all the experiments. All measurements were conducted in the potentiodynamic mode (Versastat 300 potentiostat) at a scan rate of 5 mV s^-1 over a range of rotation rates (500 rpm to 3000 rpm). Impedance measurements were also made at each rotation rate. Cyclic voltammetry was conducted on a static glassy carbon electrode at a scan rate of 50 mV s^-1.
(§1) Where n is the number of electrons transferred, F, the Faraday constant, A, electrode area, Do, the diffusion coefficient, v, the kinematic viscosity of the solution and C*, the bulk concentration of the reactants. For n = 2, an active electrode area of 0.1925 cm^2, and a kinematic viscosity of the electrolyte of 0.01 cm^2 s^-1, we were able to evalulate the diffusion coefficient from the slope of the straight line plots in FIG. 11D.
(§2) To determine the kinetic parameters for the charge-transfer process, namely the rate constant and the apparent transfer coeffcient, the logarithm of the kinetic current (after correction for mass-transport losses) was plotted against the observed overpotentials greater than 100 mV, where the Tafel equation is applicable (Eq. 4 and FIG. 11E).
(§3) Where I is the current, Ilim is the limiting current, Iex is the exchange current density, Co and CR are the concentration of the oxidized and reduced species at the surface of the electrode, Co* and CR* are the bulk concentrations of the oxidized and reduced species, α is the transfer coefficient, n is the number of electrons transferred, F is the Faraday constant, E-Erev is the overpotential, R is the gas constant, and T is the temperature. The rate constant, ko , was obtained from the exchange current density (Eq. 5).
as §1, with “plots.” for “plots in FIG. 11D.”
as §2, with “equation derived from the Butler-Volmer Equation” for “equation”, “: […]” for “(Eq. 4 and FIG. 11E).”
as §3, with “using the relationship” for “(Eq. 5).”

[2] = Solubility
[3] = Charge/discharge cycling of full ORBAT flow cells; details: 25 cm^2 flow cell, 0.2 M solutions, 1 M sulfuric acid, at least 12 cycles
From the text: A flow cell was constructed using fuel cell hardware that has graphite end plates (Electrochem Inc.) and an electrode active area of 25 cm^2. The reactant was circulated using peristaltic pumps (Masterflex) at a flow rate of approximately 0.5-1.0 liter min^-1. Membrane electrode assemblies (MEA) needed for the cell were fabricated in house using procedures similar to those previously reported for direct methanol fuel cells. (G. K. S. Prakash, M. C. Smart, Q. J. Wang, A. Atti, V. Pleynet, B. Yang, K. McGrath, G. A. Olah, S. R. Narayanan, W. Chun, T. Valdez, S. Surampudi, J. Fluorine Chemistry, 125, 1217 (2004); the entire disclosure of which is hereby incorporated by reference). Specifically, two sheets of carbon paper (Toray 030- non-teflonized) were coated with an ink containing 0.1 g of Vulcan XC-72 carbon black and 0.3 g of NAFION®. The coated electrodes were hot pressed with a NAFION® 117 membrane to form a MEA. All full cell experiments were carried out at 23° C. Two glass containers served as reservoirs for the solutions of the redox couples. An argon flow was maintained above these solutions to avoid reaction of the redox couples with oxygen. The current-voltage characteristics of the cells were measured at various states of charge. Charge/discharge studies were carried out under constant current conditions. […]

[4] = Cyclic voltammetry in 1 M potassium hydroxide; type: physicochemical

- Standard Reduction Potentials: E°(formal) Measured ([1]; 1 M sulfuric acid): 0.19
- kinetic reversibility from cyclic voltammograms ([1]; 1 M sulfuric acid, glassy carbon): less kinetically reversible than AQS
- Diffusion Coefficient, (cm^2 s^-1) ([1]; Table 5, 1 M sulfuric acid, Levich plot): 3.40E-6 cm^2 s^-1
- E½ vs. MSE, Volt ([1]; Table 5, MSE E°=+0.65 V, 1 M sulfuric acid): -0.60 Volt
- Transfer Coefficient, an ([1]; Table 5, Tafel analysis): 0.426
- Exchange Current Density, (A cm^-2) ([1]; Table 5, glassy carbon RDE, 1 M sulfuric acid): 2.97E-6 A cm^-2
- Rate Constant, k° ([1]; Table 5, obtained from exchange current density): 0.000152 cm/s
- Diffusion Coefficient (cm2/sec) ([1]; Table 7): 4.04E-6 cm2/sec
- Exchange Current density (A/cm^2) ([1]; Table 7): 1.81E-6 A/cm^2
- E½ vs. MSE, Volt ([1]; Table 7, 1 M sulfuric acid): -0.58 Volt
- Standard Reduction Potentials: Experimental (E½ values) vs. NHE ([1]; vs. NHE, 1 M sulfuric acid): 0.05
- solubility ([2]; Solubility, Table 5): 500 mM (≈ 184 mg/mL)
- solubility ([2]; water, aqueous solubility limit, aqueous): ~500 mM (≈ 184 mg/mL)
- reversible peak potential vs. MMO [4]: about -0.35 V
SMILES: O=C1c2ccc(S(=O)(=O)O)cc2C(=O)c2ccc(S(=O)(=O)O)cc21 [Anthraquinone 2,6-disulfonic acid, anthraquinone-2,6-disulfonic acid]
- charge-discharge cycling stability (capacity change) [3]: charge-discharge cycling stability similar to AQS
